How the values were obtained:
Format in all cases: physicochemical
[1] = Dispersibility test of PQQ disodium crystals in soybean oil (precipitation time); details: 5 mg crystal in 200 μL soybean oil, room temperature, time until all floating crystals precipitated to the bottom, index of dispersibility
Source text: In this example, the PQQ disodium crystal in Crystalline Form 1 and Crystalline Form 2 was compared in dispersibility in edible oils with the conventional crystals.
After drying, the pressure in the vessel was returned to atmospheric pressure, and immediately the glass vessel was closed with a lid. […] After drying, the temperature within the flask was reduced to room temperature with nitrogen gas refluxed.
Then, they were allowed to stand still at room temperature, and the time period until all of the crystals floating on the soybean oil were precipitated to the bottom of the vessel was measured, which was used as an index of dispersibility for each crystal.

[2] = Heat stability on heating in edible oil (high performance liquid chromatography); details: after heating in edible oil ODO at 150° C. for 30 minutes
[3] = Water content by the Karl Fischer method
Experimental: The water content (% by weight) of each crystal was determined by the Karl Fischer method.

[4] = Thermogravimetric analysis of water content; details: crystal formed at 180° C.
Source text: However, this crystal was unstable.

[5] = resulting crystal after the drying step, % by weight

Which results are given for “pyrroloquinoline quinone disodium crystal [Crystalline Form 1]”?
Precipitation time [1]: 30 min; amount of impurities contained in the crystal [2]: did not increase; water content [3, 5]: 0.7%; water content ([3]; resulting crystal after the drying step, % by weight, listed as Example 2): 2.2%; water content ([3]; resulting crystal after the drying step, % by weight, listed as Example 3): 1.9%

For “pyrroloquinoline quinone disodium crystal [Precursor crystal, reference compound]”, which Precipitation time [1] is on record?
The Precipitation time was 0.5 min.

What about the Precipitation time ([1]; listed as precursor crystal) of the same compound?
Its Precipitation time is 0.5 min.

And the water content ([3]; after disposal at 40° C. and relative humidity 75%)?
The water content was 12.7%.

Which water content ([3]; crystal as precipitated with ethanol, before drying) does the source give for `O=C([O-])c1cc(C(=O)[O-])c2c(n1)C(=O)C(=O)c1cc(C(=O)O)[nH]c1-2.[Na+].[Na+]` [Comparative Example 1, reference compound] here?
Its water content is 14.5%.

And the water content [3, 5]?
The water content was 9.6%.

Which water content [4] does the source give for “pyrroloquinoline quinone disodium crystal [Crystalline Form 2]” here?
The water content was about 0%.

And the Precipitation time [1]?
Its Precipitation time is 45 min.

Source: patent US9174983B2, “Pyrroloquinoline quinone disodium salt crystal and method for producing the same” (MITSUBISHI GAS CHEMICAL COMPANY, INC., priority 2011, dated 2015)
